Six compounds from ChEMBL document CHEMBL4804281, “STK4 inhibitors for treatment of hematologic malignancies” (2020) can be followed below.

The target in assay [1] is Serine/threonine-protein kinase 24 (Homo sapiens) (UniProt Q9Y6E0). Description: Inhibition of STK24 (unknown origin) using fluorescein-labelled Ser/Thr-07 peptide as substrate incubated for 1 hr in presence of ATP at Km concentration by Z-LYTE assay.
In assay [2] the target is Mitogen-activated protein kinase 9 (Homo sapiens) (UniProt P45984). The experiment in a line: Inhibition of JNK2 in human NCI-H929 cells at 10 uM by mass spectroscopic analysis relative to control. It is filed as cell-based.
Assay [3] deals with T1, Serine/threonine-protein kinase 4 (Homo sapiens) (UniProt Q13043).
T1 sequence (whole entry): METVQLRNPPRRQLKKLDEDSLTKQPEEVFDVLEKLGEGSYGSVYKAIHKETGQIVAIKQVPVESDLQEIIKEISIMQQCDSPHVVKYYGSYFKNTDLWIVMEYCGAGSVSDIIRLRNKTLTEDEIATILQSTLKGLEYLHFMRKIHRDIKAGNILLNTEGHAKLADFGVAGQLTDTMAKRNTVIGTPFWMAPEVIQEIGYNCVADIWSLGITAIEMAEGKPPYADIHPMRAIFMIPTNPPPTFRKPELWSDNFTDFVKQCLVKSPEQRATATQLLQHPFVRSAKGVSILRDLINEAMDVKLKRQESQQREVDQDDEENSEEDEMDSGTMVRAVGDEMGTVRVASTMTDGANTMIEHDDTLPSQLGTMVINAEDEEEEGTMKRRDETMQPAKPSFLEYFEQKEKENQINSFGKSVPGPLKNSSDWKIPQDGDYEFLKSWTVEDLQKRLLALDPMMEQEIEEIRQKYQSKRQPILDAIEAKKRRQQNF
Description: Inhibition of STK4 (unknown origin) using fluorescein-labelled Ser/Thr-07 peptide as substrate incubated for 1 hr in presence of ATP at Km concentration by Z-LYTE assay.

Assay [4] concerns the target TRAF2 and NCK-interacting protein kinase (Homo sapiens) (UniProt Q9UKE5). The experiment in a line: Inhibition of TNIK in human NCI-H929 cells at 10 uM by mass spectroscopic analysis relative to control. It is filed as cell-based.
Assay [5] deals with Serine/threonine-protein kinase WNK2 (Homo sapiens) (UniProt Q9Y3S1). The experiment in a line: Inhibition of WNK2 in human NCI-H929 cells at 10 uM by mass spectroscopic analysis relative to control. It is filed as cell-based.
The target in assay [6] is T2, Kinase suppressor of Ras 2 (Homo sapiens) (UniProt Q6VAB6).
T2 sequence (whole entry): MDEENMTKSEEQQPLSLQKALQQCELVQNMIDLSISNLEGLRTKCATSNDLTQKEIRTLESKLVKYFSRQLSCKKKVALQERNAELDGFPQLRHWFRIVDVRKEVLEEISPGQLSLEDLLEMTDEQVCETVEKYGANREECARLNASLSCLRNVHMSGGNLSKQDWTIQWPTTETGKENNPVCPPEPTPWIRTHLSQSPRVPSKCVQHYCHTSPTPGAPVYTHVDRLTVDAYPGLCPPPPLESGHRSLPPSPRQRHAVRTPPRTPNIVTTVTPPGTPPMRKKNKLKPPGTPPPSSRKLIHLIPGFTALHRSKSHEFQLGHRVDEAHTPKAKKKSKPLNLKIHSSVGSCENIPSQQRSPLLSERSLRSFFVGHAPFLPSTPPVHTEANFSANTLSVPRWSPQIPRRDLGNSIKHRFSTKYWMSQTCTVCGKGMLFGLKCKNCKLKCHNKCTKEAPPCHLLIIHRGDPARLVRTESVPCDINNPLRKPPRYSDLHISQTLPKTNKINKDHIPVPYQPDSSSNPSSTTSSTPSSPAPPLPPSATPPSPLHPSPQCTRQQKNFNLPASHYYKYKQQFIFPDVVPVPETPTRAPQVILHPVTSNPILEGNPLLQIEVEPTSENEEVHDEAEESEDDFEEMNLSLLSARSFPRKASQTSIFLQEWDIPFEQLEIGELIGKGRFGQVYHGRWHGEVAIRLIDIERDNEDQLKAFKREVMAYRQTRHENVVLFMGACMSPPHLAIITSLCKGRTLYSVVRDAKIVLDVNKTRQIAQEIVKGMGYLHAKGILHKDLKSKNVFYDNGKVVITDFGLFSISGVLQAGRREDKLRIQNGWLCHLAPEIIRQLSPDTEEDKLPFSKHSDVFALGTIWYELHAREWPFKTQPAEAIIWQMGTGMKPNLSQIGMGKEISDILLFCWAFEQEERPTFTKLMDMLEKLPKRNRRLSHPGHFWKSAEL
The experiment in a line: Inhibition of KSR2 in human NCI-H929 cells at 10 uM by mass spectroscopic analysis relative to control. It is filed as cell-based.

Assay [7] addresses Calcium/calmodulin-dependent protein kinase type II subunit alpha (Homo sapiens) (UniProt Q9UQM7). The experiment in a line: Inhibition of CAMK2A in human NCI-H929 cells at 10 uM by mass spectroscopic analysis relative to control. It is filed as cell-based.
In assay [8] the target is Phosphatidylinositol 4-kinase alpha (Homo sapiens) (UniProt P42356). Description: Inhibition of PI4KA in human NCI-H929 cells at 10 uM by mass spectroscopic analysis relative to control. It is filed as cell-based.
Assay [9] addresses Mitogen-activated protein kinase 10 (Homo sapiens) (UniProt P53779). Description: Inhibition of JNK3 in human NCI-H929 cells at 10 uM by mass spectroscopic analysis relative to control. In kind it is cell-based.
In assay [10] the target is T3, TGF-beta receptor type-1 (Homo sapiens) (UniProt P36897).
T3 sequence (whole entry): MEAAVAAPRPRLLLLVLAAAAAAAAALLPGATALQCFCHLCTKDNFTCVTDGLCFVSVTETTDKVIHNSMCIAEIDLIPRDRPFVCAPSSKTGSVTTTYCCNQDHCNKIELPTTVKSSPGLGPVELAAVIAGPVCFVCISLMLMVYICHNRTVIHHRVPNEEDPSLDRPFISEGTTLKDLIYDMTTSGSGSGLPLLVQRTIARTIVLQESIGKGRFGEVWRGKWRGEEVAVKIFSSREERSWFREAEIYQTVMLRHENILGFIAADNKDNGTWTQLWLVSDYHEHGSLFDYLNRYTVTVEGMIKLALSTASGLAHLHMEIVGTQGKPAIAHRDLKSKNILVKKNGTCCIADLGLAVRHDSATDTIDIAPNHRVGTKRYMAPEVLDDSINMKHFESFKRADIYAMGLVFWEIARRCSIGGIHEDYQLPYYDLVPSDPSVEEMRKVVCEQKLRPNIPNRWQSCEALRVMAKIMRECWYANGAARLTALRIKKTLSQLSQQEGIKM
Description: Inhibition of TGFBR1 in human NCI-H929 cells at 10 uM by mass spectroscopic analysis relative to control. It is filed as cell-based.

Each structure is given as a SMILES string.

Sequence of Mitogen-activated protein kinase 10 (Homo sapiens) (P53779 whole entry): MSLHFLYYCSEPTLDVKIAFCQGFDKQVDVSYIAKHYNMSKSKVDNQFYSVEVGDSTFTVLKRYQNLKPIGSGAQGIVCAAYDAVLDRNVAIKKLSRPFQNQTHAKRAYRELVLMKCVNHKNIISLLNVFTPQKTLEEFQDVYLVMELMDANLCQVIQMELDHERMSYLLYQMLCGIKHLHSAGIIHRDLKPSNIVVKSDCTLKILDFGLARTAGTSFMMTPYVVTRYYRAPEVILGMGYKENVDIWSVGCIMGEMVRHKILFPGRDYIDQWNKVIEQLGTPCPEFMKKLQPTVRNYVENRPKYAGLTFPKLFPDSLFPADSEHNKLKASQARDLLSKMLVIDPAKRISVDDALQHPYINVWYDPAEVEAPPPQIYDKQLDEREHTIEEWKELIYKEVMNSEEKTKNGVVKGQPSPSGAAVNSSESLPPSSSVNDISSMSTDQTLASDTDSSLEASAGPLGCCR
Sequence of TRAF2 and NCK-interacting protein kinase (Homo sapiens) (Q9UKE5 whole entry, looked up): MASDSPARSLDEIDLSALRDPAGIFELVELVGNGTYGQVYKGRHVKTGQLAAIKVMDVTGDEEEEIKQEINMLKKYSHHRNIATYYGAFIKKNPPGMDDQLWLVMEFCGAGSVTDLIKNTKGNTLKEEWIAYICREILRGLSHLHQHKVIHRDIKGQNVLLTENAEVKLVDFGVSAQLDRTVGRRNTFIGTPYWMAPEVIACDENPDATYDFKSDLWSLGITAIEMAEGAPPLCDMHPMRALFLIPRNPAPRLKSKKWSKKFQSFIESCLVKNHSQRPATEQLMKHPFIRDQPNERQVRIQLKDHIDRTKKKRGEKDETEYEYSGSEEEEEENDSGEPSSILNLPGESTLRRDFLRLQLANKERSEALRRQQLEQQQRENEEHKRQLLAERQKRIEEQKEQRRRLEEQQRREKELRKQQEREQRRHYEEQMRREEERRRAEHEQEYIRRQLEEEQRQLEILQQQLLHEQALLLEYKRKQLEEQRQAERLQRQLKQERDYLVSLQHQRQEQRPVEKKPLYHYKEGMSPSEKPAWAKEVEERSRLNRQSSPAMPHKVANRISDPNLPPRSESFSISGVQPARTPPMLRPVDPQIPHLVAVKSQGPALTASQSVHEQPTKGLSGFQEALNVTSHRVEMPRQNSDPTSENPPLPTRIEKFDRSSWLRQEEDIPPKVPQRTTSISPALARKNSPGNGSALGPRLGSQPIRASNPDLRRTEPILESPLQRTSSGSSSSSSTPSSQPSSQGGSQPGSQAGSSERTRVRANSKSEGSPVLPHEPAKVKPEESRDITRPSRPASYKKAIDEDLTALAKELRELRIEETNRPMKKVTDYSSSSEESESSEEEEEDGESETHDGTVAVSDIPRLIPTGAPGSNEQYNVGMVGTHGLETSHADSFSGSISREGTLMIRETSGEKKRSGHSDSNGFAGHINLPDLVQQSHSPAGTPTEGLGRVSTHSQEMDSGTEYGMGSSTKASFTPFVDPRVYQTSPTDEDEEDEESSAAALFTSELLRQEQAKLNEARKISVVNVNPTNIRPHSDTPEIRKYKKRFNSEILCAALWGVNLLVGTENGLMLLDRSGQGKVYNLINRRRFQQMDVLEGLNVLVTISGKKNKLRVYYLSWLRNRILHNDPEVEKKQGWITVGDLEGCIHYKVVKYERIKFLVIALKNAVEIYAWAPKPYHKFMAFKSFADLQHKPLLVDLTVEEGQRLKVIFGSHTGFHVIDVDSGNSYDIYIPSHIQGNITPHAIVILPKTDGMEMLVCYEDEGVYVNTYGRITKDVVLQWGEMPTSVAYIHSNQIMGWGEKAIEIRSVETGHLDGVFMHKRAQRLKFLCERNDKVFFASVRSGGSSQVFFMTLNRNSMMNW
Sequence of Calcium/calmodulin-dependent protein kinase type II subunit alpha (Homo sapiens) (Q9UQM7 whole entry): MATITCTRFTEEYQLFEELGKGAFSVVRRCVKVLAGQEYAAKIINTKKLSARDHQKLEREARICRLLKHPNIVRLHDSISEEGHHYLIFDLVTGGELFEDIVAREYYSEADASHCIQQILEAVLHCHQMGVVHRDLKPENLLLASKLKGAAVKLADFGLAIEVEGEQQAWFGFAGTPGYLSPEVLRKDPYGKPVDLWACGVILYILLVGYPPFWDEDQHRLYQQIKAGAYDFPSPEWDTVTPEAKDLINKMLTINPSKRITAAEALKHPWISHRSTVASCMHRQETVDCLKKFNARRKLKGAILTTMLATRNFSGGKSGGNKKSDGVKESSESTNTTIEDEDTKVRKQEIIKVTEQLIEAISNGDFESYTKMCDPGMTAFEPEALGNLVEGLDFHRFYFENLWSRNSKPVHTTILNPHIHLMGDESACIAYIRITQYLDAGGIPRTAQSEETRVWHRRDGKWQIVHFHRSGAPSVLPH
Sequence of Mitogen-activated protein kinase 9 (Homo sapiens) (P45984 whole entry, looked up): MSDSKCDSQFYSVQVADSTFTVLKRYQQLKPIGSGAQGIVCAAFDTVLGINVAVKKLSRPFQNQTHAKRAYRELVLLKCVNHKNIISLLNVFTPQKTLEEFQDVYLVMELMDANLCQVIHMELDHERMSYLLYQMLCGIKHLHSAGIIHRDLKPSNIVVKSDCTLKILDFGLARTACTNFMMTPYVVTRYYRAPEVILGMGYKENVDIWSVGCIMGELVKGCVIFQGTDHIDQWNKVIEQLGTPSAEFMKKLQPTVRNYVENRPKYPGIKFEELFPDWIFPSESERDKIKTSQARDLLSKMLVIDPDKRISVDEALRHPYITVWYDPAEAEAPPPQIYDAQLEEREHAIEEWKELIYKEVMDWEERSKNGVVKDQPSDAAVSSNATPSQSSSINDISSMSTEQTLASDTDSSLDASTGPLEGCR
Sequence of Phosphatidylinositol 4-kinase alpha (Homo sapiens) (P42356 whole entry, looked up): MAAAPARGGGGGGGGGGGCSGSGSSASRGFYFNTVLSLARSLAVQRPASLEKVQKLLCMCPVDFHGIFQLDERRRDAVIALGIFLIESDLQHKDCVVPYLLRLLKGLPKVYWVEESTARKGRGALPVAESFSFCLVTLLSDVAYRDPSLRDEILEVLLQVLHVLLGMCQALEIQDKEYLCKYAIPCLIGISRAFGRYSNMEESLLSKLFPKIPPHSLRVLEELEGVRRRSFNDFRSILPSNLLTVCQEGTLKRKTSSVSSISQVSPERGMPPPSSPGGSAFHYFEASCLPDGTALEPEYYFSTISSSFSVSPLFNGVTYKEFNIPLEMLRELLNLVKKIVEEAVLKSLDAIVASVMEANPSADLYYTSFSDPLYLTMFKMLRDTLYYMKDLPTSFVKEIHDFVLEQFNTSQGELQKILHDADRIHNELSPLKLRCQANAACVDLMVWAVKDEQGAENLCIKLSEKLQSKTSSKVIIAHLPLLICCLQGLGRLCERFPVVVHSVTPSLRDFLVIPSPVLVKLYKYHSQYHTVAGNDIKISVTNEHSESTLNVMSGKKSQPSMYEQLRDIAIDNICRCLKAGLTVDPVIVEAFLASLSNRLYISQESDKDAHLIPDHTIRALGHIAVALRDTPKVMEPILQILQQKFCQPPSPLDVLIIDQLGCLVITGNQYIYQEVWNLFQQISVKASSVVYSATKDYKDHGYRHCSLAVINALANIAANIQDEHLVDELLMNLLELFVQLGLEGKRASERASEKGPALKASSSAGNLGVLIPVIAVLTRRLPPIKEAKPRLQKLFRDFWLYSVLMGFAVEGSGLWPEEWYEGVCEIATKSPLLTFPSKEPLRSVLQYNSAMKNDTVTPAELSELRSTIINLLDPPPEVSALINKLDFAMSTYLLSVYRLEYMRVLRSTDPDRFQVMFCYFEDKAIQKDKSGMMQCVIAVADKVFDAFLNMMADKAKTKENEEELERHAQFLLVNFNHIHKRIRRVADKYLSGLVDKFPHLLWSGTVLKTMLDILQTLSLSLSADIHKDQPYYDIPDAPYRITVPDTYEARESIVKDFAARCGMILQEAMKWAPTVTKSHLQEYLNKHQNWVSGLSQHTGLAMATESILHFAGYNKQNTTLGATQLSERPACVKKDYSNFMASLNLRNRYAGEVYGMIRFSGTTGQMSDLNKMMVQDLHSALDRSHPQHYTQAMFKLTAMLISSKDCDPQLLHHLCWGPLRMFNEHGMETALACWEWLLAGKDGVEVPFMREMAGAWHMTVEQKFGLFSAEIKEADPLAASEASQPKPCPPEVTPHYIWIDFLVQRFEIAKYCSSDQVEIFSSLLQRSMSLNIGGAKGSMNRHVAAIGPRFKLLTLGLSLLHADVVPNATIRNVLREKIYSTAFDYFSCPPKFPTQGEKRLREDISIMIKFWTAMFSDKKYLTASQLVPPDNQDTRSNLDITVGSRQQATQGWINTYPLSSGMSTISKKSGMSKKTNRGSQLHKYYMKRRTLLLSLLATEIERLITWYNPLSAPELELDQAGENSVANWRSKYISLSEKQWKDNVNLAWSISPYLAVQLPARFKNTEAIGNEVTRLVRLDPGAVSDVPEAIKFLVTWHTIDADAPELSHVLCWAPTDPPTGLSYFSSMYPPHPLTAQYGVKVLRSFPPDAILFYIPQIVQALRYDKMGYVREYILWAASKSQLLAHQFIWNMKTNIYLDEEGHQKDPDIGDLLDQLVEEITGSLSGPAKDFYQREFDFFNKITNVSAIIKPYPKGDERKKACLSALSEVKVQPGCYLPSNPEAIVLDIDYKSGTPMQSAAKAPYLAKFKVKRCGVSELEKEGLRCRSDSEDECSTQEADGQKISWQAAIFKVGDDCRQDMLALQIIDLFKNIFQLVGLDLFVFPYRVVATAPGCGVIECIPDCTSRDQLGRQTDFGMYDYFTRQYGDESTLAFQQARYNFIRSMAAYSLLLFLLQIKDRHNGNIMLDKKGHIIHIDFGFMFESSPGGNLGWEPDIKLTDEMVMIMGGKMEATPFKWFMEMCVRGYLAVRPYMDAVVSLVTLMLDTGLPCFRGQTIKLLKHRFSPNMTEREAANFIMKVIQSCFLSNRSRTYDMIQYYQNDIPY

In the case of `Nc1ncc(-c2cccc([N+](=O)[O-])c2F)cc1-c1ccc2c(c1)CCNC2=O`, the concentration for half-maximal inhibition (IC50) (as a rule, the concentration at which inhibition is half-maximal) in assay [1] was more than 900 nM; in assay [3] it was less than 40 nM. In addition, the inhibition – broadly, how much of the control response was suppressed – in assay [2] was 0%; in assay [4] it was more than 90%; in assay [5], more than 100%; in assay [6], 0%; in assay [7], 0%; in assay [8], 0%. Also, in [9], the inhibition is 0%.

Consider `Nc1ncc(-c2ccc(NS(=O)(=O)C3CC3)cc2OC2CCCCC2)cc1-c1ccc2c(c1)CCNC2=O`, for which the half-inhibitory concentration (IC50) was more than 900 nM in assay [1] and less than 40 nM in assay [3]. Also, the inhibition in assay [10] was more than 90%; in [2], 0%; in assay [4], 50%; in assay [5], 0%; in assay [6], 0%; in assay [7] it was 0%. In addition, the inhibition in [8] and in [9] was 0% throughout.

As to `CN(C1CC1)S(=O)(=O)c1ccc(-c2cnc(N)c(-c3ccc4c(c3)CCNC4=O)c2)c(F)c1`, the half-inhibitory concentration (IC50) in assay [1] was 40 nM; in assay [3], less than 40 nM. The inhibition in assay [2] was 0%; in assay [4] it was more than 90%; in assay [5] it was 0%; in assay [6] it was 0%; in [7], 0%; in assay [8], 0%. The inhibition in [9] is 0%.

On to `Nc1ncc(-c2ccc(NS(=O)(=O)C3CC3)cc2F)cc1-c1ccc2c(c1)CCNC2=O`, for which the IC50 was 40 nM in assay [1] and less than 40 nM in [3]. In addition, the inhibition in assay [10] is 0%; in [2], 0%; in assay [4], more than 90%; in [5] it was 0%; in assay [6], 0%; in assay [7] it was 0%. In addition, the inhibition in assay [8] and in assay [9] was 0% each time.

As to `Nc1ncc(-c2cccc3ncsc23)cc1-c1ccc2c(c1)CCNC2=O`, the 50% inhibitory concentration (IC50) was more than 900 nM in assay [1] and less than 40 nM in assay [3]. Besides, the inhibition in assay [2] was 0%; in [4] it was more than 90%; in assay [5] it was 0%; in assay [6] it was 0%; in assay [7] it was 0%; in assay [8], 0%. In addition, the inhibition in assay [9] amounted to 0%.

Turning to `COc1cc(NS(=O)(=O)C2CC2)ccc1-c1cnc(N)c(-c2ccc3c(c2)CCNC3=O)c1`, the IC50 was 200 nM in assay [1] and less than 40 nM in [3]. In addition, the inhibition was 75% in assay [10]; 0% in assay [2]; more than 90% in [4]; 0% in [5]; 0% in assay [6]; 0% in assay [7]. Also, the inhibition in assay [8] came out at 0%; in assay [9], 75%.
